Test results: patent US20120046353A1 (priority 2010, published 2012)

Each molecule was assayed against neuraminidase of Tamiflu-resistant novel influenza virus (point mutation H→Y) (Influenza A virus, UniProt C3W5S3, H275Y).
`COc1c(C)c(O)c(C)c(O)c1C(=O)/C=C/c1ccc(O)cc1` [Compound 4, 4,2′,4′-trihydroxy-6′-methoxy-3′,5′-dimethylchalcone] was tested, and the “Inhibitory activity against neuraminidase of Tamiflu-resistant novel influenza virus, in words” value (shortened to “Inhibitory activity”) was “excellent inhibitory activity”.
For `COc1c(C)c(O)c(C)c(O)c1C(=O)/C=C/c1ccccc1` [Compound 5, 2′,4′-dihydroxy-6′-methoxy-3′,5′-dimethylchalcone], the “Inhibitory activity” value was “excellent inhibitory activity”.
For `COc1cc(O)c(C)c(O)c1C(=O)/C=C/c1ccccc1` [Compound 8, 2′,4′-dihydroxy-3′-methyl-6′-methoxychalcone], the “Inhibitory activity” value was “excellent inhibitory activity”.
`COc1c(C)c(O)c(C)c(O)c1C(=O)/C=C/c1ccccc1O` [Compound 14, 2,2′,4′-trihydroxy-6′-methoxy-3′,5′-dimethylchalcone] was tested, and the “Inhibitory activity” value was “excellent inhibitory activity”.
